These results are taken from ChEMBL document CHEMBL1201862, “PubChem BioAssay data set” (2004).

Holding throughout (assay): NCI-60 cell line screen, 48 h
The subject of test [1] is HCT-116.
The subject of test [2] is HOP-62.
Test [3] deals with SNB-75.
Test [4] concerns CCRF-CEM.
For test [5], the system named is HOP-92.
For test [6], the system named is SK-MEL-5.
Test [7] has as its system SK-OV-3.
Test [8] relates to NCI-H23.
The test system of test [9] is MOLT-4.
Test [10] concerns OVCAR-3.
For test [11], the system named is SK-MEL-28.
The test system of test [12] is HT-29.
In test [13] the test system is NCI-H226.
The test system of test [14] is SF-268.
Test [15] concerns HCT-15.
For test [16], the system named is SK-MEL-2.
Test [17] relates to OVCAR-4.

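Each compound was tested at five concentrations against cells in 96-well plates for 48 hours. GI50 = concentration required for 50% inhibition of growth.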 The source made the active and inactive calls. Rule as the data show it: active = GI50 up to about 1.1 µM and inactive = higher.

Consider `CN1CC[C@]2(C)c3cc(O)ccc3CC3CCCC1C32C` (stereo partly drawn), for which the GI50 in [1] was > 100 µM (inactive); in test [2], > 100 µM (inactive); in test [3], 92 µM (inactive); in test [4], > 100 µM (inactive); in [5] it was > 100 µM (inactive); in test [6], > 100 µM (inactive). Besides, the GI50 in test [7], in [8], in test [9], in [10], in [11] and in [12] was > 100 µM (inactive) in each case. Besides, the values for the GI50 in test [13], in test [14] and in test [15] were > 100 µM (inactive), > 100 µM (inactive) and over 100 µM, respectively.
In the case of `COc1cc2c(cc1OC)C(=O)N1CCCC1C(=O)S2` (stereo not drawn), the GI50 in [1], in [2], in test [4], in [5], in [6] and in test [7] was > 100 µM (inactive) in each case. The GI50 in [8], in test [9], in test [16], in [10], in test [11] and in test [14] was > 100 µM (inactive) throughout. Moreover, the GI50 in [15] is over 100 µM.
For `O=C(O)C12C3CCC(C3)C1(C(=O)O)C1CCC2C1` (stereo not drawn), the GI50 in test [1] was 45.3 µM (inactive); in [2], > 100 µM (inactive); in test [3], > 100 µM (inactive); in test [4], 32.8 µM (inactive); in [5] it was > 100 µM (inactive); in [6] it was > 100 µM (inactive). Further, the GI50 in test [7], in [8], in [9], in test [16], in test [10] and in test [11] was > 100 µM (inactive) in each case. In addition, the GI50 in test [12] was > 100 µM (inactive); in test [13] it was > 100 µM (inactive); in test [14] it was > 100 µM (inactive); in test [15] it was 39.8 µM.
In the case of `CCOC(=O)C(=O)Nc1ccc([N+](=O)[O-])cc1C#N`, the GI50 in test [1], in test [2], in test [4], in test [5], in test [6] and in test [7] was > 100 µM (inactive) in each case. Besides, the GI50 in test [8], in [9], in [16], in test [10], in test [11] and in test [17] was > 100 µM (inactive) each time. The GI50 in test [12] was > 100 µM (inactive); in [13], > 100 µM (inactive); in test [14], > 100 µM (inactive); in test [15] it was over 100 µM.
As for `CC(=O)OCC1OC(n2c(=O)[nH]c(=O)c3nn[nH]c32)C(OC(C)=O)C(OC(C)=O)C1OC(C)=O` (stereo not drawn), the GI50 was > 100 µM (inactive) in test [1]; > 100 µM (inactive) in test [2]; 2.63 µM (inactive) in test [3]; > 100 µM (inactive) in test [4]; > 100 µM (inactive) in test [5]; > 100 µM (inactive) in test [6]. Besides, the GI50 in test [7] was > 100 µM (inactive); in test [8], > 100 µM (inactive); in test [9] it was > 100 µM (inactive); in test [16], > 100 µM (inactive); in test [11], > 100 µM (inactive); in test [17] it was 66.5 µM (inactive). The GI50 in test [12] is > 100 µM (inactive); in [14], > 100 µM (inactive); in [15], over 100 µM.
Turning to `CCO[C@]12C[C@H](OC)[C@@]3(O)CC(C1[C@H]3OCc1ccccc1)C13C4C2[C@H](OC)C1[C@](COC)(CN4CC)[C@H](O)C[C@@H]3OC` (stereo partly drawn), the GI50 in [1], in test [2], in [3], in test [4], in [6] and in test [7] was > 100 µM (inactive) each time. The GI50 in test [8] is > 100 µM (inactive); in test [9] it was 95.9 µM (inactive); in [11], > 100 µM (inactive); in test [17], > 100 µM (inactive); in test [12], > 100 µM (inactive); in test [13], > 100 µM (inactive). Further, the values for the GI50 in test [14] and in test [15] were > 100 µM (inactive) and over 100 µM, respectively.
Consider `CNC(=O)NCNC(=O)NC`, for which the GI50 in [1], in test [2], in [3], in test [4], in test [5] and in [6] was > 100 µM (inactive) in each case. Moreover, the GI50 in test [7], in [8], in test [9], in [16], in test [10] and in [11] was > 100 µM (inactive) each time. The GI50 in [17] is > 100 µM (inactive); in test [12] it was > 100 µM (inactive); in [15] it was over 100 µM.
Consider `Cc1ccc2[nH]c3c4c5ccccc5nc-4c[nH]c3c2c1`, for which the GI50 in test [1] is 17.1 µM (inactive); in test [2], 10 µM (inactive); in [3], 14.9 µM (inactive); in [4], 15.3 µM (inactive); in test [7], 12.6 µM (inactive); in [8], 10 µM (inactive). Also, the GI50 was 16.2 µM (inactive) in test [9]; 18.9 µM (inactive) in test [16]; 10 µM (inactive) in [10]; 17.7 µM (inactive) in [11]; 22.1 µM (inactive) in [17]; 11.6 µM (inactive) in test [12]. Also, the GI50 in test [13] is 16.1 µM (inactive); in [14] it was 17 µM (inactive).
Consider `Cc1ccc(/C=C(\NC(=O)c2ccccc2)c2nc3ccccc3[nH]2)cc1`, for which the GI50 in test [1] was 37.2 µM (inactive); in test [2] it was > 100 µM (inactive); in [5], 28.3 µM (inactive); in [6], 12.8 µM (inactive); in test [8], 59.6 µM (inactive); in test [16] it was 31.6 µM (inactive). In addition, the GI50 was 46.9 µM (inactive) in test [10]; 71.9 µM (inactive) in test [11]; 70.5 µM (inactive) in test [17]; 37.5 µM (inactive) in test [12]; 60.8 µM (inactive) in [14]; 45.6 µM in [15].
On to `ClC(/N=N/c1ccccc1)=N/Nc1ccccc1`, for which the GI50 in test [1], in [2], in [4], in [5], in [7] and in test [8] was > 100 µM (inactive) in each case. In addition, the GI50 in test [9], in test [16], in [11], in test [17], in [12] and in [13] was > 100 µM (inactive) each time. Also, the GI50 in [14] was 39.2 µM (inactive).
